Reference: PubChem BioAssay (NCI)
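Method: 48-hour compound exposure of cells in 96-well plates, five concentrations, linear interpolation of endpoints. Definition used: TGI = concentration required for complete inhibition of growth.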

Tests used:
Test in all cases: NCI anticancer screen, dose series, 48 h
[1] = tested on: 786-0 renal
[2] = tested on: A498 renal
[3] = tested on: A549 NSCLC
[4] = tested on: ACHN renal
[5] = tested on: BT-549 breast
[6] = tested on: CAKI-1 renal
[7] = tested on: CCRF-CEM leukemia
[8] = tested on: COLO 205 colon
[9] = tested on: DU-145 prostate
[10] = tested on: EKVX NSCLC
[11] = tested on: HCT-116 colon
[12] = tested on: HCT-15 colon
[13] = tested on: HL-60(TB) leukemia
[14] = tested on: HOP-62 NSCLC
[15] = tested on: HOP-92 NSCLC
[16] = tested on: HS 578T breast
[17] = tested on: HT29 colon
[18] = tested on: IGROV1 ovarian
[19] = tested on: K-562 leukemia
[20] = tested on: KM12 colon
[21] = tested on: LOX IMVI melanoma
[22] = tested on: M14 melanoma
[23] = tested on: MALME-3M melanoma
[24] = tested on: MCF7 breast
[25] = tested on: MDA-MB-231 breast
[26] = tested on: MDA-MB-435
[27] = tested on: MDA-N
[28] = tested on: MOLT-4 leukemia
[29] = tested on: NCI-H23 lung
[30] = tested on: NCI-H460 lung
[31] = tested on: NCI-H522 lung
[32] = tested on: NCI/ADR-RES ovarian
[33] = tested on: OVCAR-3 ovarian
[34] = tested on: OVCAR-4 ovarian
[35] = tested on: OVCAR-5 ovarian
[36] = tested on: OVCAR-8 ovarian
[37] = tested on: PC-3 prostate
[38] = tested on: RPMI-8226 leukemia
[39] = tested on: RXF 393 renal
[40] = tested on: SF-268 CNS
[41] = tested on: SF-295 CNS
[42] = tested on: SF-539 CNS
[43] = tested on: SK-MEL-2 melanoma
[44] = tested on: SK-MEL-28 melanoma
[45] = tested on: SK-MEL-5 melanoma
[46] = tested on: SK-OV-3 ovarian
[47] = tested on: SN12C renal
[48] = tested on: SNB-19 CNS
[49] = tested on: SNB-75 CNS
[50] = tested on: SR leukemia
[51] = tested on: SW-620 colon
[52] = tested on: T-47D breast
[53] = tested on: TK-10 renal
[54] = tested on: U251 CNS
[55] = tested on: UACC-257 melanoma
[56] = tested on: UACC-62 melanoma
[57] = tested on: UO-31 renal

**Q.** For `O=C(c1cccc(F)c1F)N1CCc2c([nH]c3ccccc23)C1c1ccc2c(c1)OCO2` (stereo not drawn), which TGI [1] is on record?
**A.** Its TGI is > 100 µM.

**Q.** What about the TGI [2] of the same compound?
**A.** Its TGI is > 100 µM.

**Q.** What about the TGI [3] of the same compound?
**A.** The TGI was 72.5 µM.

**Q.** And the TGI [4]?
**A.** The TGI was > 100 µM.

**Q.** What about the TGI [5] of the same compound?
**A.** The TGI was > 100 µM.

**Q.** What about the TGI [6] of the same compound?
**A.** The TGI was 87.2 µM.

**Q.** What about the TGI [7] of the same compound?
**A.** Its TGI is > 100 µM.

**Q.** What about the TGI [8] of the same compound?
**A.** The TGI was 12.9 µM.

**Q.** What about the TGI [9] of the same compound?
**A.** Its TGI is > 100 µM.

**Q.** And the TGI [10]?
**A.** The TGI was 65.3 µM.

**Q.** What about the TGI [11] of the same compound?
**A.** Its TGI is > 100 µM.

**Q.** And the TGI [12]?
**A.** The TGI was > 100 µM.

**Q.** And the TGI [13]?
**A.** The TGI was 18.7 µM.

**Q.** And the TGI [14]?
**A.** The TGI was 2830 nM.

**Q.** What about the TGI [15] of the same compound?
**A.** Its TGI is > 100 µM.

**Q.** What about the TGI [16] of the same compound?
**A.** The TGI was > 100 µM.

**Q.** What about the TGI [17] of the same compound?
**A.** Its TGI is > 100 µM.

**Q.** What about the TGI [18] of the same compound?
**A.** The TGI was > 100 µM.

**Q.** And the TGI [19]?
**A.** Its TGI is > 100 µM.

**Q.** What about the TGI [20] of the same compound?
**A.** Its TGI is 32.7 µM.

**Q.** And the TGI [21]?
**A.** The TGI was > 100 µM.

**Q.** And the TGI [22]?
**A.** Its TGI is 18.4 µM.

**Q.** What about the TGI [23] of the same compound?
**A.** The TGI was > 100 µM.

**Q.** What about the TGI [24] of the same compound?
**A.** Its TGI is 57.4 µM.

**Q.** And the TGI [25]?
**A.** The TGI was 74.5 µM.

**Q.** And the TGI [26]?
**A.** The TGI was 6.09 µM.

**Q.** What about the TGI [27] of the same compound?
**A.** The TGI was 7.01 µM.

**Q.** What about the TGI [28] of the same compound?
**A.** The TGI was > 100 µM.

**Q.** And the TGI [29]?
**A.** Its TGI is > 100 µM.

**Q.** What about the TGI [30] of the same compound?
**A.** The TGI was 29.9 µM.

**Q.** And the TGI [31]?
**A.** Its TGI is 60.2 µM.

**Q.** What about the TGI [32] of the same compound?
**A.** The TGI was 53 µM.

**Q.** And the TGI [33]?
**A.** The TGI was 5.26 µM.

**Q.** And the TGI [34]?
**A.** Its TGI is 67.8 µM.

**Q.** And the TGI [35]?
**A.** The TGI was > 100 µM.

**Q.** And the TGI [36]?
**A.** The TGI was > 100 µM.

**Q.** And the TGI [37]?
**A.** Its TGI is 39.2 µM.

**Q.** And the TGI [38]?
**A.** The TGI was 48.1 µM.

**Q.** What about the TGI [39] of the same compound?
**A.** Its TGI is 35.4 µM.

**Q.** What about the TGI [40] of the same compound?
**A.** Its TGI is > 100 µM.

**Q.** What about the TGI [41] of the same compound?
**A.** The TGI was 26.3 µM.

**Q.** What about the TGI [42] of the same compound?
**A.** Its TGI is 21.4 µM.

**Q.** What about the TGI [43] of the same compound?
**A.** Its TGI is 16.5 µM.

**Q.** And the TGI [44]?
**A.** The TGI was > 100 µM.

**Q.** What about the TGI [45] of the same compound?
**A.** Its TGI is 13.4 µM.

**Q.** And the TGI [46]?
**A.** The TGI was 51.9 µM.

**Q.** And the TGI [47]?
**A.** Its TGI is 91.1 µM.

**Q.** What about the TGI [48] of the same compound?
**A.** Its TGI is 61.4 µM.

**Q.** What about the TGI [49] of the same compound?
**A.** The TGI was 22.2 µM.

**Q.** What about the TGI [50] of the same compound?
**A.** The TGI was 21.3 µM.

**Q.** What about the TGI [51] of the same compound?
**A.** Its TGI is > 100 µM.

**Q.** And the TGI [52]?
**A.** The TGI was > 100 µM.

**Q.** What about the TGI [53] of the same compound?
**A.** Its TGI is > 100 µM.

**Q.** What about the TGI [54] of the same compound?
**A.** The TGI was > 100 µM.

**Q.** What about the TGI [55] of the same compound?
**A.** The TGI was 60.4 µM.

**Q.** And the TGI [56]?
**A.** The TGI was 48.8 µM.

**Q.** What about the TGI [57] of the same compound?
**A.** The TGI was 47.7 µM.

**Q.** Which results are given for `COc1cc(O)cc2oc(-c3ccc(O)cc3)cc(=O)c12`?
**A.** TGI [1]: > 100 µM; TGI [2]: 78.3 µM; TGI [3]: > 100 µM; TGI [4]: > 100 µM; TGI [5]: > 100 µM; TGI [6]: > 100 µM; TGI [7]: > 100 µM; TGI [8]: > 100 µM; TGI [9]: > 100 µM; TGI [10]: > 100 µM; TGI [11]: > 100 µM; TGI [12]: > 100 µM; TGI [13]: > 100 µM; TGI [14]: > 100000 nM; TGI [15]: > 100 µM; TGI [16]: > 100 µM; TGI [17]: > 100 µM; TGI [18]: > 100 µM; TGI [19]: > 100 µM; TGI [20]: > 100 µM; TGI [21]: > 100 µM; TGI [22]: > 100 µM; TGI [23]: > 100 µM; TGI [24]: > 100 µM; TGI [25]: > 100 µM; TGI [26]: > 100 µM; TGI [27]: > 100 µM; TGI [28]: > 100 µM; TGI [29]: > 100 µM; TGI [30]: > 100 µM; TGI [31]: > 100 µM; TGI [32]: > 100 µM; TGI [33]: > 100 µM; TGI [35]: > 100 µM; TGI [36]: > 100 µM; TGI [37]: > 100 µM; TGI [38]: > 100 µM; TGI [39]: > 100 µM; TGI [40]: > 100 µM; TGI [41]: > 100 µM; TGI [42]: > 100 µM; TGI [43]: > 100 µM; TGI [44]: > 100 µM; TGI [45]: > 100 µM; TGI [46]: > 100 µM; TGI [47]: > 100 µM; TGI [48]: > 100 µM; TGI [49]: 62.7 µM; TGI [50]: > 100 µM; TGI [51]: > 100 µM; TGI [52]: > 100 µM; TGI [53]: > 100 µM; TGI [54]: > 100 µM; TGI [55]: > 100 µM; TGI [56]: > 100 µM; TGI [57]: > 100 µM
